Assay results reported in patent publication US9670204B2, “Compounds and pharmaceutical compositions thereof for the treatment of inflammatory disorders” (Galapagos NV, priority 2013, dated 2017).

Tests used:
[1] = target: T1, hENPP2 (UniProtKB/SwissProt Q13822) (Homo sapiens (Human), UniProt Q13822); assay: fluorescent hENPP2 biochemical assay, FS-3 as substrate; conditions: read-out: FS3-IC50
Method in brief: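 IC50 values come from fluorescence gained as FS-3 is hydrolysed (ex 485, em 520 nm). The reaction, started by adding 0.75 μM FS-3 solution, runs 30 min at 30° C after a 30 min room-temperature preincubation of compound with enzyme. Buffer: Tris-HCl pH 8.0 with NaCl, KCl, MgCl2, CaCl2 and 0.1% BSA.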

[2] = target: T1, hENPP2; assay: hENPP2 biochemical assay, LPC as substrate; conditions: LPC (palmitoyl 16:0) as substrate
Method in brief: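 Human ENPP2 in 50 mM Tris-HCl pH 8.5, 500 mM NaCl, 5 mM KCl, 10 mM CaCl2, 0.1% fatty-acid-free BSA, reacted 30 min at 37 °C with LPC 16:0 (150 µM solution added 1:1). Released choline measured via choline oxidase/peroxidase/TOOS/4-aminoantipyrine quinoneimine dye at 555 nm; IC50 reported.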

[3] = test system: LPA 18:2 in rat plasma; assay: Rat whole blood (plasma) LPA assay; assay type: biochemical; conditions: 2 h at 37 C, LPA 18:2 by LC-MS/MS
Method: Whole blood is collected from rats or mouse by exsanguinations on sodium heparin tube, then after centrifugation at 3000 rpm for 15 min at 4° C., plasma is stored at −80° C. Compounds are diluted in DMSO in concentration dependent manner then 0.5 μL are dispensed into 96-well plate placed in ice. Plasma is defrosted on ice then 49.5 μL of plasma are added into the well containing 0.5 μL of compound (1% DMSO final). Plates are covered with a lid in polypropylene and incubated at +37° C., 5% CO2, for 2 h under gentle shaking (except controls which are stored at −20° C.).
At the end of the incubation, controls are defrosted in ice and transferred in the incubated plates for LC-MS/MS analysis with a non GLP-validated method. For the analysis, plasma proteins from a 10 μL incubated plates are precipitated with an excess of methanol containing the internal standard, LPA 17:0. After centrifugation, the corresponding supernatant is injected on a C18 column. Analytes are eluted out of the column under isocratic conditions. An API5500 QTRAP mass spectrometer (ABSciex™) is used for the detection of LPA 18:2. No calibration curve is prepared for LPA 18:2, however relative quantities are evaluated based on the peak area.

SMILES	IC50 [1]	IC50 [2]	IC50 [3]
CCc1nc2c(C)cc(N3CCN(CC(=O)N4CC[C@@H](O)C4)CC3)cn2c1N(C)c1nc(-c2ccc(F)cc2)c(C#N)s1 [Compound 4, (R)-2-((2-ethyl-6-(4-(2-(3-hydroxypyrrolidin-1-yl)-2-oxoethyl)piperazin-1-yl)-8-methylimidazo[1,2-a]pyridin-3-yl)(methyl)amino)-4-(4-fluorophenyl)thiazole-5-carbonitrile]	0.01 to 100 nM	100 to 500 nM	100 to 500 nM
CCc1nc2c(F)cc(N3CCN(CC(=O)N4CC(O)C4)CC3)cn2c1N(C)c1nc(-c2ccc(F)cc2)cs1 [Compound 14, 2-(4-(2-ethyl-8-fluoro-3-((4-(4-fluorophenyl)thiazol-2-yl)(methyl)amino)imidazo[1,2-a]pyridin-6-yl)piperazin-1-yl)-1-(3-hydroxyazetidin-1-yl)ethanone]			0.01 to 100 nM
CCc1nc2c(F)cc(N3CCN(CC(=O)N4CC[C@H](O)C4)CC3)cn2c1N(C)c1nc(-c2ccc(F)cc2)cs1 [Compound 15, (S)-2-(4-(2-ethyl-8-fluoro-3-((4-(4-fluorophenyl)thiazol-2-yl)(methyl)amino)imidazo[1,2-a]pyridin-6-yl)piperazin-1-yl)-1-(3-hydroxypyrrolidin-1-yl)ethanone]			500 to 1000 nM
CCc1nc2c(F)cc(N3CCN(CC(=O)N4CC[C@@H](O)C4)CC3)cn2c1N(C)c1nc(-c2ccc(F)cc2)cs1 [Compound 16, (R)-2-(4-(2-ethyl-8-fluoro-3-((4-(4-fluorophenyl)thiazol-2-yl)(methyl)amino)imidazo[1,2-a]pyridin-6-yl)piperazin-1-yl)-1-(3-hydroxypyrrolidin-1-yl)ethanone]			500 to 1000 nM
CCc1nc2cc(F)c(N3CCN(CC(=O)N4CC(O)C4)CC3)cn2c1N(C)c1nc(-c2ccc(F)cc2)cs1 [Compound 19, 2-[4-(2-Ethyl-7-fluoro-3-{[4-(4-fluoro-phenyl)-thiazol-2-yl]-methyl-amino}-imidazo[1,2-a]pyridin-6-yl)-piperazin-1-yl]-1-(3-hydroxy-azetidin-1-yl)-ethanone]			> 1000 nM
CCc1nc2ccc(N3CCN(CC(=O)N4CC[C@@H](O)C4)CC3)cn2c1N(C)c1nc(-c2ccc(F)cc2)cs1 [Compound 26, (R)-2-(4-(2-ethyl-3-((4-(4-fluorophenyl)thiazol-2-yl)(methyl)amino)imidazo[1,2-a]pyridin-6-yl)piperazin-1-yl)-1-(3-hydroxypyrrolidin-1-yl)ethanone]		100 to 500 nM	> 1000 nM
CCc1nc2ccc(N3CCN(Cc4ncco4)CC3)cn2c1N(C)c1nc(-c2ccc(F)cc2)cs1 [Compound 40]	0.01 to 100 nM	> 1000 nM	500 to 1000 nM
CCc1nc2ccc(N3CCN(C(=O)C4CCCN4)CC3)cn2c1N(C)c1nc(-c2ccc(F)cc2)cs1 (stereo not drawn) [Compound 46, (4-(2-ethyl-3-((4-(4-fluorophenyl)thiazol-2-yl)(methyl)amino)imidazo[1,2-a]pyridin-6-yl)piperazin-1-yl)(pyrrolidin-2-yl)methanone]	0.01 to 100 nM	> 1000 nM	> 1000 nM
CCc1nc2ccc(N3CCN(C(=O)C4CCN(C(C)=O)C4)CC3)cn2c1N(C)c1nc(-c2ccc(F)cc2)cs1 (stereo not drawn) [Compound 48, 1-{3-[4-(2-Ethyl-3-{[4-(4-fluoro-phenyl)-thiazol-2-yl]-methyl-amino}-imidazo[1,2-a]pyridin-6-yl)-piperazine-1-carbonyl]-pyrrolidin-1-yl}-ethanone]		> 1000 nM	> 1000 nM
CCc1nc2ccc(N3CCN(C(=O)CCCN(C)C)CC3)cn2c1N(C)c1nc(-c2ccc(F)cc2)cs1 [Compound 53, 4-(dimethylamino)-1-(4-(2-ethyl-3-((4-(4-fluorophenyl)thiazol-2-yl)(methyl)amino)imidazo[1,2-a]pyridin-6-yl)piperazin-1-yl)butan-1-one]	0.01 to 100 nM	> 1000 nM	> 1000 nM
CCc1nc2ccc(N3CCN(S(C)(=O)=O)CC3)cn2c1N(C)c1nc(-c2ccc(F)cc2)cs1 [Compound 54, N-(2-ethyl-6-(4-(methylsulfonyl)piperazin-1-yl)imidazo [1,2-a]pyridin-3-yl)-4-(4-fluorophenyl)-N-methylthiazol-2-amine]	0.01 to 100 nM	500 to 1000 nM	> 1000 nM
CCc1nc2ccc(C3=CCN(S(C)(=O)=O)CC3)cn2c1N(C)c1nc(-c2ccc(OC(F)(F)F)cc2)cs1 [Compound 72, N-(2-ethyl-6-(1-(methylsulfonyl)-1,2,3,6-tetrahydropyridin-4-yl)imidazo[1,2-a]pyridin-3-yl)-N-methyl-4-(4-(trifluoromethoxy)phenyl)thiazol-2-amine]		100 to 500 nM	> 1000 nM
CCc1nc2ccc(C3CCN(S(=O)(=O)CCCN(C)C)CC3)cn2c1N(C)c1nc(-c2ccc(F)cc2)c(CO)s1 [Compound 149, (2-((6-(1-(3-(dimethylamino)propyl-sulfonyl)piperidin-4-yl)-2-ethylimidazo[1,2-a]pyridin-3-yl)(methyl)amino)-4-(4-fluorophenyl)thiazol-5-yl)]		100 to 500 nM	> 1000 nM

The remaining lines, values ahead:

IC50 [1]	IC50 [2]	IC50 [3]	SMILES
0.01 to 100 nM	100 to 500 nM	500 to 1000 nM	CCc1nc2c(C)cc(N3CCN(CC(=O)N4CC[C@H](O)C4)CC3)cn2c1N(C)c1nc(-c2ccc(F)cc2)c(C#N)s1 [Compound 5, (S)-2-((2-ethyl-6-(4-(2-(3-hydroxypyrrolidin-1-yl)-2-oxoethyl)piperazin-1-yl)-8-methylimidazo[1,2-a]pyridin-3-yl)(methyl)amino)-4-(4-fluorophenyl)thiazole-5-carbonitrile]
		100 to 500 nM	CCc1nc2c(C)cc(C3CCN(CC(=O)N4CC(O)C4)CC3)cn2c1N(C)c1nc(-c2ccc(F)cc2)c(C#N)s1 [Compound 10, 2-((2-ethyl-6-(1-(2-(3-hydroxyazetidin-1-yl)-2-oxoethyl)piperidin-4-yl)-8-methylimidazo[1,2-a]pyridin-3-yl)(methyl)amino)-4-(4-fluorophenyl)thiazole-5-carbonitrile]
		0.01 to 100 nM	CCc1nc2cc(F)c(N3CCN(CC(=O)N4CC(O)C4)CC3)cn2c1N(C)c1nc(-c2ccc(F)cc2)c(C#N)s1 [Compound 18, 2-[(2-Ethyl-7-fluoro-6-{4-[2-(3-hydroxy-azetidin-1-yl)-2-oxo-ethyl]-piperazin-1-yl}-imidazo[1,2-a]pyridin-3-yl)-methyl-amino]-4-(4-fluoro-phenyl)-thiazole-5-carbonitrile]
	0.01 to 100 nM	0.01 to 100 nM	CCc1nc2ccc(N3CCN(CC(=O)N(C)C)CC3)cn2c1N(C)c1nc(-c2ccc(F)cc2)c(C#N)s1 [Compound 140, 2-(4-(3-((5-cyano-4-(4-fluorophenyl)thiazol-2-yl)(methyl)amino)-2-ethylimidazo[1,2-a]pyridin-6-yl)piperazin-1-yl)-N,N-dimethylacetamide]
	0.01 to 100 nM	0.01 to 100 nM	CCc1nc2ccc(C3CCN(CC(=O)N4CC[C@@H](O)C4)CC3)cn2c1N(C)c1nc(-c2ccc(F)cc2)c(C#N)s1 [Compound 142, (R)-2-((2-ethyl-6-(1-(2-(3-hydroxypyrrolidin-1-yl)-2-oxoethyl)piperidin-4-yl)imidazo[1,2-a]pyridin-3-yl)(methyl)amino)-4-(4-fluorophenyl)thiazole-5-carbonitrile]
	0.01 to 100 nM	0.01 to 100 nM	CCc1nc2ccc(C3CCN(CC(=O)N4CC(CO)C4)CC3)cn2c1N(C)c1nc(-c2ccc(F)cc2)c(C#N)s1 [Compound 144, 2-((2-ethyl-6-(1-(2-(3-(hydroxymethyl)azetidin-1-yl)-2-oxoethyl)piperidin-4-yl)imidazo[1,2-a]pyridin-3-yl)(methyl)amino)-4-(4-fluorophenyl)thiazole-5-carbonitrile]
	100 to 500 nM	500 to 1000 nM	CCC(=O)N1CCC(c2ccc3nc(CC)c(N(C)c4nc(-c5ccc(F)cc5)c(CO)s4)n3c2)CC1 [Compound 154, 1-(4-(2-ethyl-3-((4-(4-fluorophenyl)-5-(hydroxymethyl)thiazol-2-yl)(methyl)amino)imidazo[1,2-a]pyridin-6-yl)piperidin-1-yl)propan-1-one]
	500 to 1000 nM	100 to 500 nM	CN(c1nc(-c2ccc(F)cc2)c(CO)s1)c1c(CCC#N)nc2ccc(C3CCN(S(C)(=O)=O)CC3)cn12 [Compound 175, 3-(3-((4-(4-fluorophenyl)-5-(hydroxymethyl)thiazol-2-yl)(methyl)amino)-6-(1-(methylsulfonyl)piperidin-4-yl)imidazo[1,2-a]pyridin-2-yl)propanenitrile]
